Earlier results on one compound are cited in patent publication US20240366545A1, “ANTIBACTERIAL PORPHYRIN NANOPARTICLES AND METHODS FOR MAKING AND USING THE SAME” (priority 2021, published 2024).

The data set relates to normal mammalian cells.

Bounds are passed on as bounds.

In the case of `CCCCCCCCCCCCCCCC[N+](C)(C)C.[Br-]` [CTAB, cetyl trimethylammonium bromide], the toxic concentration is not below 10 µM.
